The source of these data is patent EP0829476B1, “6-Substituted acyclopyrimidine nucleoside derivatives and antiviral agent containing the same as active ingredient thereof” (MITSUBISHI CHEMICAL CORPORATION, priority 1989, dated 1991).

Series [1] is described as follows: Cytotoxicity: destruction of MT-4 cells not infected with HIV, cultured the same way. It counts as cell-based. The conditions noted are these: human, 5 days of incubation, concentration at which 50 % of the MT-4 cells were destroyed, read-out: 50% cytotoxic concentration to MT-4 cells. The procedure:
(§1) In RPMI 1640 DM culture medium containing 20 mM of Hepes buffer solution, 10 % fetal bovine serum and 20 µg/ml of gentamycin, 3 x 10^4 MT-4 cells (human T cell clone which is destroyed by the infection of HIV) were infected with HIV in an amount of 100 times as large as expected to cause 50 % infection of the cells. Immediately thereafter, a predetermined amount of sample was added to the culture medium using 50 mg/ml sample solutions in dimethyl sulfoxide and the cells were cultured at 37°C.
(§2) After 5 days of incubation, the number of existing cells was counted to determine the concentration of the compound for preventing the death of 50 % of the MT-4 cells. Separately, MT-4 cells were cultured in the same way as above except that they were not infected with HIV to determine the concentration of the compound at which 50 % of the MT-4 cells were destroyed.

Series [2] has as its system HIV. Briefly: Inhibitory activity for HIV infection: prevention of death of HIV-infected MT-4 cells, cell count after 5 days. To be noted: Human immunodeficiency virus 1, MT4, 120 h, 5 days of incubation at 37°C, concentration preventing the death of 50 % of the MT-4 cells. It counts as cell-based. The procedure: Inhibitory activity for HIV infection
as §1, §2

Consider `CCCOCn1c(Sc2ccccc2)c(C)c(=O)[nH]c1=O` [Compound 38], for which the CC50 at 120 h in series [1] is 147 µM. Also, in series [2], the EC50 was 5.6 µM. On to `CCOCn1c(Sc2cc(C)cc(C)c2)c(CC)c(=O)[nH]c1=S` [Compound 314], for which, in series [1], the CC50 at 120 h was above 100 µM. The EC50 in series [2] turned out to be 0.004 µM. The corresponding values for `CCOCn1c(-c2ccccc2)c(CC)c(=O)[nH]c1=S` [Compound 215, 1-ethoxymethyl-5-ethyl-6-phenylthiouracil] are 133 µM and 0.016 µM.

For the compound `CCOCn1c(Cc2ccccc2)c(CC)c(=O)[nH]c1=O` [Compound 427, 6-benzyl-1-ethoxymethyl-5-ethyluracil], the CC50 at 120 h in series [1] amounted to 245 µM. Same read-out and setting: as for `CCOCn1c(Sc2ccccc2)c(CC)c(=O)[nH]c1=S` [Compound 313, 1-ethoxymethyl-5-ethyl-6-phenylthio-2-thiouracil], the figure is 81 µM. Take `CCCCn1c(-c2ccccc2)c(CC)c(=O)[nH]c1=S` [Compound 220, 1-butyl-5-ethyl-6-phenylthiouracil]: the CC50 at 120 h in series [1] came to 45 µM. This compound came in with a 50% effective concentration (EC50) in series [2] of 0.016 µM. Take `CC(=O)OCCOCn1c(Sc2ccccc2)c(C)c(=O)[nH]c1=S` [Compound 1, 1-[(2-acetoxyethoxy)methyl]-6-phenylthio-2-thiothymine]: the CC50 at 120 h in series [1] came out at 196 µM.
